In patent publication US6132740A, “Resorcinol derivatives” (Pfizer Inc., priority 1998, dated 2000):
Where “and” joins values, the source holds several entries; their conditions need not be identical. Equal entries are not always repeated.

Tests used:
black guinea pigs = assay: In vivo depigmentation study in black guinea pigs; design: species or system guinea pig; settings: for depigmentation of skin (in words): 5% in ethanol:propylene glycol 70:30, twice daily, 5 days per week for 4-8 weeks, black or dark brown guinea pigs; for reduction of pigmentation in treated ears (in words) / reversibility of the depigmentation effect (in words) / Depigmentation effect, Δ light reflectance (treated ear - untreated ear), 1 week post-treatment / Depigmentation effect, Δ light reflectance (treated ear - untreated ear), 3-week / Depigmentation effect, Δ light reflectance (treated ear - untreated ear), 6-week / Depigmentation effect, Δ light reflectance (treated ear - untreated ear), 8.5 week: 5% in ethanol:propylene glycol (70:30); for reduction of pigmentation in treated ears (in words) / reversibility of the depigmentation effect (in words): ears of black guinea pigs; for reversibility of the depigmentation effect (in words): after ceasing treatment; for Depigmentation effect, Δ light reflectance (treated ear - untreated ear), 1 week post-treatment / Depigmentation effect, Δ light reflectance (treated ear - untreated ear), 3-week / Depigmentation effect, Δ light reflectance (treated ear - untreated ear), 6-week / Depigmentation effect, Δ light reflectance (treated ear - untreated ear), 8.5 week: topical to ears of black guinea pigs, one value per animal; for Depigmentation effect, Δ light reflectance (treated ear - untreated ear), 3-week / Depigmentation effect, Δ light reflectance (treated ear - untreated ear), 6-week / Depigmentation effect, Δ light reflectance (treated ear - untreated ear), 8.5 week: positive value indicates depigmentation
Protocol: Black or dark brown guinea pigs with homogeneous skin color can be used in this study. A solution of the test compound of formula I (5% in ethanol:propylene glycol, 70:30) and the vehicle control are applied to the animals twice daily, 5 days per week for 4-8 weeks.
In vivo experiments were carried out to determine the depigmenting effects of 4-cyclohexylresorcinol and 4-cyclopentylresorcinol using the assay described above (in vivo study). Thus, 5% 4-cyclohexylresorcinol and 5% 4-cyclopentylresorcinol, each in ethanol:propylene glycol (70:30), were administered separately to the ears of black guinea pigs. Depigmentation was determined by subtracting the light reflectance of untreated ears from the light reflectance of treated ears.

human tyrosinase = target: T1, human tyrosinase (Homo sapiens, UniProt P14679); assay: Tyrosinase (DOPA oxidase) assay using cell lysate; type: biochemical; settings: SKMEL 188 human melanoma cell lysate, L-DOPA 100 μg/ml, 8 hours, read at 405 nm
T1 construct: endogenous in cells; host or cells: SKMEL 188 human melanoma cell line (licensed from Memorial Sloan-Kettering), lysate
T1 sequence (P14679 19-529): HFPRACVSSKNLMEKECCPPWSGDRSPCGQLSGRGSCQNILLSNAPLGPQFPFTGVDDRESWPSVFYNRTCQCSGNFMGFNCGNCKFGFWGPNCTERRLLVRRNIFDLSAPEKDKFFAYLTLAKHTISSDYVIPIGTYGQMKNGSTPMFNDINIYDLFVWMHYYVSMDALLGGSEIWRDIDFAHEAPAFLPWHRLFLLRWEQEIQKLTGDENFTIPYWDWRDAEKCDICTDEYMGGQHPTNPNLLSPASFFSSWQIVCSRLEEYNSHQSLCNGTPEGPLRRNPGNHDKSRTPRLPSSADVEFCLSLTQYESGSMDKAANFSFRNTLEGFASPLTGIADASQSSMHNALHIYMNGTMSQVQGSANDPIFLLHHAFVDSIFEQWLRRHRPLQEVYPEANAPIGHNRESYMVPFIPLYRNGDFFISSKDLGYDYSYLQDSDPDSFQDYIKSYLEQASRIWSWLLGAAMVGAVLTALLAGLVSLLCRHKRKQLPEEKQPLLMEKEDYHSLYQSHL
Protocol: 1. Tyrosinase (DOPA oxidase) Assay Using Cell Lysate:
Human melanoma cell line, SKMEL 188 (licensed from Memorial Sloan-Kettering), is used in the cell lysate assay and the screen. In the assay, compounds and L-dihydroxyphenylalanine (L-DOPA) (100 μg/ml) are incubated with the cell lysates containing human tyrosinase for 8 hours before the plates are read at 405 nm. Potency of the compounds in DOPA oxidase assay is correlated very well with that in tyrosine hydroxylase assay using 3H-tyrosine as a substrate.

Row | Compound | depigmentation of skin (in words) (black guinea pigs) | reduction of pigmentation in treated ears (in words) (black guinea pigs) | reversibility of the depigmentation effect (in words) (black guinea pigs) | Depigmentation effect, Δ light reflectance (treated ear - untreated ear), 1 week post-treatment (black guinea pigs) | Depigmentation effect, Δ light reflectance (treated ear - untreated ear), 3-week (black guinea pigs) | Depigmentation effect, Δ light reflectance (treated ear - untreated ear), 6-week (black guinea pigs) | Depigmentation effect, Δ light reflectance (treated ear - untreated ear), 8.5 week (black guinea pigs) | IC50 (human tyrosinase) [nM]
1 | Oc1ccc(C2CCCC2)c(O)c1 [4-cyclopentylresorcinol, 4-Cyclopentylresorcinol] | depigmentation of skin was visualized | reduced pigmentation in treated ears starting 3 weeks after initial treatment | reversible, and repigmentation partially resumed one week after ceasing treatment | 6 | 15 and 9 and 4 | 12 and 9 | 10 and 18 and 7 | 
2 | Oc1ccc(C2CCCCC2)c(O)c1 [4-cyclohexylresorcinol, 4-Cyclohexylresorcinol] | depigmentation of skin was visualized | reduced pigmentation in treated ears starting 3 weeks after initial treatment | reversible, and repigmentation partially resumed one week after ceasing treatment | 1 and 0 | 13 and 0 and 14 and 3 | 8 and 0 and 14 and 7 | 6 and 7 and 19 | 300
